pIC50: −log10 of the molar value.
Legend:
[1] = biological target: Foxo-1 (Homo sapiens, UniProt Q12778); details: from Molecular Pharmacology (2010), 78(5), 961-970; approximate values; read-out: Potency Foxo-1; cited from earlier work
[2] = tested on: Lgr5+ cells (cochlear stem cells); assay: Lgr5+ assay: expansion of Lgr5-positive cochlear cells in 3D culture; type: cell-based, mouse; details: for % of Lgr5+ Positive Cells / Potency (Lgr5+ activity): 10 days culture with EGF, bFGF, IGF1, approximate values; for Potency (Lgr5+ activity): effective concentration for Lgr5+ expansion
From the text: “Stem Cell Proliferation Assay” as used herein is an assay to determine the capacity for agent(s) to induce the creation of stem cells from a starting cell population. In an exemplary Stem Cell Proliferation Assay, the number of cells for an initial cell population is harvested from a Lgr5-GFP mouse such as a B6.129P2-Lgr5tm1(cre/ERT2)Cle/J mouse (also known as Lgr5-EGFP-IRES-creERT2 or Lgr5-GFP mouse, Jackson Lab Stock No: 008875) between the age of 3 to 7 days, by isolating the organ of Corti sensory epithelium and dissociating the epithelium into single cells. Approximately 5000 cells are entrapped in 40 μl of culture substrate (for example, Matrigel (Corning, Growth Factor Reduced)) and placed at the center of wells in a 24-well plate with 500 μl of an appropriate culture media, growth factors and agent being tested. Appropriate culture media and growth factors include Advanced DMEM/F12 with media supplements (1×N2, 1×B27, 2 mM Glutamax, 10 mM HEPES, 1 mM N-acetylcysteine, and 100 U/ml penicillin/100 μg/ml streptomycin) and growth factors (50 ng/ml EGF, 50 ng/ml bFGF, and 50 ng/ml IGF-1) as well as the agent(s) being assessed are added into each well. Cells are cultured for 10 days in a standard cell culture incubator at 37° C. and 5% CO2, with media change every 2 days. The number of Lgr5^+ cells is quantified by counting the number of cells identified as Lgr5+ in an in vitro Lgr5 activity assay (i.e., an assay mearing in vitro Lgr5 activity). The fraction of cells that are Lgr5^+ is quantified by dividing the number of cells identified as Lgr5^+ in a cell population by the total number of cells present in the cell population. The average Lgr5^+ activity of a population is quantified by measuring the average mRNA expression level of Lgr5 of the population normalized using suitable and unregulated references or housekeeping genes (e.g., Hprt). The number of hair cells in a population may be measured by staining with hair cell marker (e.g., MyosinVIIa), or using an endogenous reporter of hair cell genes (e.g., Pou4f3-GFP, Atoh1-nGFP) and analyzing using flow cytometry. The fraction of cells that are hair cells is quantified by dividing the number of cells identified as hair cells in a cell population by the total number of cells present in the cell population. Lgr5 activity can be measured by qPCR.
The compounds of the present disclosure were used in Lgr5-EGFP-IRES-Cre-ER mice (Barker et al., 2007) to analyze the effects of small molecules on cochlear stem cell expansion.
Isolation of stem cells from the inner ear: All animal studies were conducted under an approved institutional protocol according to National Institutes of Health guidelines. For experiments with neonatal mice (postnatal days 1-3), the cochleae were dissected in Hank's Balanced Salt Solution (HBSS) and the organs of Corti were separated from the stria vascularis and the modiolus. The organs of Corti were then treated with Cell Recovery Solution (Corning) for 1 hour to separate cochlear epithelium from the underlying mesenchyme. Epithelia were then collected and treated with TrypLE (Life Technologies) for 15-20 minutes at 37° C. Single cells obtained by mechanical trituration were filtered (40 μm) and suspended in Matrigel® (Corning) for 3D culture.
Cells were cultured in a 1:1 mixture of DMEM and F12, supplemented with Glutamax (GIBCO), N2, B27 (Invitrogen), EGF (50 ng/ml; Chemicon), bFGF (50 ng/ml; Chemicon), IGF1 (50 ng/ml; Chemicon) and the composition provided herein. Medium was changed every other day.
Lgr5-positive cells were quantified after 10 days (D10) in culture in multiple conditions. Cell colonies were dissociated into single cells using TrypLE (Gibco). The cells were then stained with propidium iodide (P1) and were analyzed using a flow cytometer for Lgr5-GFP expression. The number of GFP-positive cells and the percentage of GFP-positive cells were quantified. […]

[3] = in a background of growth factors, compared to CHIR-99021 and its combinations (figures)

Foxo-1, sequence (Q12778 whole entry, species assumed): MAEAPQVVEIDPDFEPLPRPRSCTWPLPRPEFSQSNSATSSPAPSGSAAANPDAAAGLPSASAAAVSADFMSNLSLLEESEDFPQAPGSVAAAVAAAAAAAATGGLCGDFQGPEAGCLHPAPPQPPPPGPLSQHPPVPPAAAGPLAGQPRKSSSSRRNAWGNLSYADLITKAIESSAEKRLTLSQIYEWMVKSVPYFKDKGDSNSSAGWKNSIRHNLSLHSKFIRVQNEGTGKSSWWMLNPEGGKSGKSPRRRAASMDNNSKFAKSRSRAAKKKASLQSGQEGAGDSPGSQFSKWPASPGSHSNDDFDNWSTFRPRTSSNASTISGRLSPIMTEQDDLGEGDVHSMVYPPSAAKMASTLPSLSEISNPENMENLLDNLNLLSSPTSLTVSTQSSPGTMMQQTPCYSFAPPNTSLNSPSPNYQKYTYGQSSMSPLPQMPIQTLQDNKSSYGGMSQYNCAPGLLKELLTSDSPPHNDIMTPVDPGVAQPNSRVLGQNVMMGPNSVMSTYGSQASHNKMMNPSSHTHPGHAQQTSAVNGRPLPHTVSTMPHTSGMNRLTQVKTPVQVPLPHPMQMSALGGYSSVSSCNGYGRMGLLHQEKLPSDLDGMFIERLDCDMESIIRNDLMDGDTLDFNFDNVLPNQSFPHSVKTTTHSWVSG

Structure (SMILES) | pIC50 [1] | % of Lgr5+ Positive Cells [2] [%] | Potency (Lgr5+ activity) [2] [nM] | Lgr5 GFP+ progenitor cell proliferation (Lgr5 positive cell count) [2, 3] | enrichment of Lgr5 GFP+ cochlear progenitor cells (percent of Lgr5 positive cells) [2, 3]
CCC(CC)n1cc(C(=O)O)c(=O)c2c(C)c(F)c(NC3CCCCC3)cc21 [Compound I-3] | > 7.00 | <5 | >10000 |  | 
CCn1cc(C(=O)O)c(=O)c2c(N)c(F)c(NC3CCCCC3)cc21 [Compound I-7] | > 7.00 | 22 | 370 | generate Lgr5 GFP+ progenitor cell proliferation | generates enrichment of Lgr5 GFP+ cochlear progenitor cells

Reference: patent publication US20230058189A1, “QUINOLIN-4-ONE AND 4(1H)-CINNOLINONE COMPOUNDS AND METHODS OF USING SAME” (Frequency Therapeutics, Inc., priority 2019, published 2023)
